In publication PMC7609050, “Photosynthesis without β-carotene” (eLife, 2020):

Target: T1, PSII core (Nicotiana tabacum, UniProt P06411+P06413+P69556+P69686)
T1 construct: gene psbA; native PSII core complex, sucrose gradient band of alpha-DDM-solubilised thylakoids; some Lhcb contamination
Assay: HPLC and absorption-fit pigment analysis of isolated complex
Type: binding
Conditions: normalised to 37 Chls
From the text: HPLC and absorption-fit pigment analysis of isolated complex on PSII core

Asta and its bypass products (complex from Asta plants (no beta-carotene), count includes by-products of astaxanthin synthesis) [molecules per complex] | β-caro (complex from wild-type plants) [molecules per complex] | SMILES
4.12 ± 0.01 |  | CC1=C(/C=C/C(C)=C/C=C/C(C)=C/C=C/C=C(C)/C=C/C=C(C)/C=C/C2=C(C)C(=O)[C@@H](O)CC2(C)C)C(C)(C)C[C@H](O)C1=O [astaxanthin]
 | 3.93 ± 0.08 | CC1=C(/C=C/C(C)=C/C=C/C(C)=C/C=C/C=C(C)/C=C/C=C(C)/C=C/C2=C(C)CCCC2(C)C)C(C)(C)CCC1 [β-carotene]
